Experimental findings from patent US11331369B2, “Endoparasitic depsipeptides” (Zoetis Services LLC, priority 2017, dated 2022) are described below.

The assay has as its system microfilariae of Dirofilaria immitis. The assay is described as follows: Dirofilaria immitis, Microfilaria (DiMF) In vitro Assay. The class given is cell-based. Conditions: 72 h, read-out: DiMF Minimum Effective Dose (MED), approximately 72 hours incubation, microfilariae assessed for survival or paralysis.

For `CC(C)C[C@H]1C(=O)O[C@H](Cc2cccc(Cn3cc(-c4ccccn4)cn3)c2)C(=O)N(C)[C@@H](CC(C)C)C(=O)O[C@H](C)C(=O)N(C)[C@@H](CC(C)C)C(=O)O[C@H](Cc2cccc(Cn3cc(-c4ccccn4)cn3)c2)C(=O)N(C)[C@@H](CC(C)C)C(=O)O[C@H](C)C(=O)N1C` [Example 4-16, (3S,6R,9S,12R,15S,18R,21S,24R)-3,9,15,21-tetraisobutyl-4,6,10,16,18,22-hexamethyl-12,24-bis(3-((4-(pyridin-2-yl)-1H-pyrazol-1-yl)methyl)benzyl)-1,7,13,19-tetraoxa-4,10,16,22-tetraazacyclotetracosan-2,5,8,11,14,17,20,23-octaone], the minimal effective concentration is 0.01 to 0.1 µM. Turning to `CC(C)C[C@H]1C(=O)O[C@H](Cc2cccc(Cn3cc(O)cn3)c2)C(=O)N(C)[C@@H](CC(C)C)C(=O)O[C@H](C)C(=O)N(C)[C@@H](CC(C)C)C(=O)O[C@H](Cc2cccc(Cn3cc(O)cn3)c2)C(=O)N(C)[C@@H](CC(C)C)C(=O)O[C@H](C)C(=O)N1C` [Example 4-17, (3S,6R,9S,12R,15S,18R,21S,24R)-6,18-bis(3-((4-hydroxy-1H-pyrazol-1-yl)methyl)benzyl)-3,9,15,21-tetraisobutyl-4,10,12,16,22,24-hexamethyl-1,7,13,19-tetraoxa-4,10,16,22-tetraazacyclotetracosan-2,5,8,11,14,17,20,23-octaone], the minimal effective concentration lay in the range of 0.01 to 0.1 µM. To `CC(C)C[C@H]1C(=O)O[C@H](Cc2cccc(Cn3cc(F)cn3)c2)C(=O)N(C)[C@@H](CC(C)C)C(=O)O[C@H](C)C(=O)N(C)[C@@H](CC(C)C)C(=O)O[C@H](Cc2ccccc2)C(=O)N(C)[C@@H](CC(C)C)C(=O)O[C@H](C)C(=O)N1C` [Example 5-1, (3S,6R,9S,12R,15S,18R,21S,24R)-6-benzyl-18-(3-((4-fluoro-1H-pyrazol-1-yl)methyl)benzyl)-3,9,15,21-tetraisobutyl-4,10,12,16,22,24-hexamethyl-1,7,13,19-tetraoxa-4,10,16,22-tetraazacyclotetracosan-2,5,8,11,14,17,20,23-octaone] belongs 0.001 to 0.01 µM; to `CC(C)C[C@H]1C(=O)O[C@H](Cc2cccc(Cn3cc([N+](=O)[O-])cn3)c2)C(=O)N(C)[C@@H](CC(C)C)C(=O)O[C@H](C)C(=O)N(C)[C@@H](CC(C)C)C(=O)O[C@H](Cc2ccccc2)C(=O)N(C)[C@@H](CC(C)C)C(=O)O[C@H](C)C(=O)N1C` [Example 5-2, (3S,6R,9S,12R,15S,18R,21S,24R)-6-benzyl-3,9,15,21-tetraisobutyl-4,10,12,16,22,24-hexamethyl-18-(3-((4-nitro-1H-pyrazol-1-yl)methyl)benzyl)-1,7,13,19-tetraoxa-4,10,16,22-tetraazacyclotetracosan-2,5,8, 11,14,17,20,23-octaone], 0.001 to 0.01 µM; to `CC(C)C[C@H]1C(=O)O[C@H](Cc2cccc(Cn3cc(O)cn3)c2)C(=O)N(C)[C@@H](CC(C)C)C(=O)O[C@H](C)C(=O)N(C)[C@@H](CC(C)C)C(=O)O[C@H](Cc2ccccc2)C(=O)N(C)[C@@H](CC(C)C)C(=O)O[C@H](C)C(=O)N1C` [Example 5-3, (3S,6R,9S,12R,15S,18R,21S,24R)-6-benzyl-18-(3-((4-hydroxy-1H-pyrazol-1-yl)methyl)benzyl)-3,9,15,21-tetraisobutyl-4,10,12,16,22,24-hexamethyl-1,7,13,19-tetraoxa-4,10,16,22-tetraazacyclotetracosan-2,5,8,11,14,17,20,23-octaone], 0.01 to 0.1 µM.

In the case of `CC(C)C[C@H]1C(=O)O[C@H](Cc2cccc(Cn3nc(CO)cc3CO)c2)C(=O)N(C)[C@@H](CC(C)C)C(=O)O[C@H](C)C(=O)N(C)[C@@H](CC(C)C)C(=O)O[C@H](Cc2ccccc2)C(=O)N(C)[C@@H](CC(C)C)C(=O)O[C@H](C)C(=O)N1C` [Example 5-4, (3S,6R,9S,12R,15S,18R,21S,24R)-6-benzyl-18-(3-((3,5-bis(hydroxymethyl)-1H-pyrazol-1-yl)methyl)benzyl)-3,9,15,21-tetraisobutyl-4,10,12,16,22,24-hexamethyl-1,7,13,19-tetraoxa-4,10,16,22-tetraazacyclotetracosan-2,5,8,11,14,17,20,23-octaone], the minimal effective concentration lay in the range of 0.01 to 0.1 µM.

For `CC(C)C[C@H]1C(=O)O[C@H](Cc2cccc(Cn3nc(C4CC4)cc3C3CC3)c2)C(=O)N(C)[C@@H](CC(C)C)C(=O)O[C@H](C)C(=O)N(C)[C@@H](CC(C)C)C(=O)O[C@H](Cc2ccccc2)C(=O)N(C)[C@@H](CC(C)C)C(=O)O[C@H](C)C(=O)N1C` [Example 5-6, (3S,6R,9S,12R,15S,18R,21S,24R)-6-benzyl-18-(3-((3,5-dicyclopropyl-1H-pyrazol-1-yl)methyl)benzyl)-3,9,15,21-tetraisobutyl-4,10,12,16,22,24-hexamethyl-1,7,13,19-tetraoxa-4,10,16,22-tetraazacyclotetracosan-2,5,8,11,14,17,20,23-octaone], the minimal effective concentration fell in the range of 0.01 to 0.1 µM. To `Cc1nccn1Cc1ccc(C[C@H]2OC(=O)[C@H](CC(C)C)N(C)C(=O)[C@@H](C)OC(=O)[C@H](CC(C)C)N(C)C(=O)[C@@H](Cc3ccc(Cn4ccnc4C)cc3)OC(=O)[C@H](CC(C)C)N(C)C(=O)[C@@H](C)OC(=O)[C@H](CC(C)C)N(C)C2=O)cc1` [Example 6-1, (3S,6R,9S,12R,15S,18R,21S,24R)-3,9,15,21-tetraisobutyl-4,6,10,16,18,22-hexamethyl-12,24-bis[[4-[(2-methylimidazol-1-yl)methyl]phenyl]methyl]-1,7,13,19-tetraoxa-4,10,16,22-tetrazacyclotetracosane-2,5,8,11,14,17,20,23-octaone] belongs 0.001 to 0.01 µM; to `CC(C)C[C@H]1C(=O)O[C@H](Cc2ccc(Cn3ccnc3)cc2)C(=O)N(C)[C@@H](CC(C)C)C(=O)O[C@H](C)C(=O)N(C)[C@@H](CC(C)C)C(=O)O[C@H](Cc2ccc(Cn3ccnc3)cc2)C(=O)N(C)[C@@H](CC(C)C)C(=O)O[C@H](C)C(=O)N1C` [Example 6-2, (3S,6R,9S,12R,15S,18R,21S,24R)-6,18-bis[[4-(imidazol-1-ylmethyl)phenyl]methyl]-3,9,15,21-tetraisobutyl-4,10,12,16,22,24-hexamethyl-1,7,13,19-tetraoxa-4,10,16,22-tetrazacyclotetracosane-2,5,8,11,14,17,20,23-octaone], 0.01 to 0.1 µM. Under `CCc1nccn1Cc1ccc(C[C@H]2OC(=O)[C@H](CC(C)C)N(C)C(=O)[C@@H](C)OC(=O)[C@H](CC(C)C)N(C)C(=O)[C@@H](Cc3ccc(Cn4ccnc4CC)cc3)OC(=O)[C@H](CC(C)C)N(C)C(=O)[C@@H](C)OC(=O)[C@H](CC(C)C)N(C)C2=O)cc1` [Example 6-4, (3S,6R,9S,12R,15S,18R,21S,24R)-6,18-bis[[4-[(2-ethylimidazol-1-yl)methyl]phenyl]methyl]-3,9,15,21-tetraisobutyl-4,10,12,16,22,24-hexamethyl-1,7,13,19-tetraoxa-4,10,16,22-tetrazacyclotetracosane-2,5,8,11,14,17,20,23-octaone] stands 0.01 to 0.1 µM; under `Cc1cn(Cc2ccc(C[C@H]3OC(=O)[C@H](CC(C)C)N(C)C(=O)[C@@H](C)OC(=O)[C@H](CC(C)C)N(C)C(=O)[C@@H](Cc4ccc(Cn5cc(C)nc5C)cc4)OC(=O)[C@H](CC(C)C)N(C)C(=O)[C@@H](C)OC(=O)[C@H](CC(C)C)N(C)C3=O)cc2)c(C)n1` [Example 6-5, (3S,6R,9S,12R,15S,18R,21S,24R)-6,18-bis(4-((2,4-dimethyl-1H-imidazol-1-yl)methyl)benzyl)-3,9,15,21-tetraisobutyl-4,10,12,16,22,24-hexamethyl-1,7,13,19-tetraoxa-4,10,16,22-tetraazacyclotetracosan-2,5,8,11,14,17,20,23-octaone], 0.01 to 0.1 µM; under `CC(C)C[C@H]1C(=O)O[C@H](Cc2ccc(Cn3ccnc3C(C)(C)C)cc2)C(=O)N(C)[C@@H](CC(C)C)C(=O)O[C@H](C)C(=O)N(C)[C@@H](CC(C)C)C(=O)O[C@H](Cc2ccc(Cn3ccnc3C(C)(C)C)cc2)C(=O)N(C)[C@@H](CC(C)C)C(=O)O[C@H](C)C(=O)N1C` [Example 6-6, (3S,6R,9S,12R,15S,18R,21S,24R)-6,18-bis[[4-[(2-tert-butylimidazol-1-yl)methyl]phenyl]methyl]-3,9,15,21-tetraisobutyl-4,10,12,16,22,24-hexamethyl-1,7,13,19-tetraoxa-4,10,16,22-tetrazacyclotetracosane-2,5,8,11,14,17,20,23-octaone], 0.01 to 0.1 µM.

As for `CC(C)C[C@H]1C(=O)O[C@H](Cc2ccc(Cn3ccnc3C(C)C)cc2)C(=O)N(C)[C@@H](CC(C)C)C(=O)O[C@H](C)C(=O)N(C)[C@@H](CC(C)C)C(=O)O[C@H](Cc2ccc(Cn3ccnc3C(C)C)cc2)C(=O)N(C)[C@@H](CC(C)C)C(=O)O[C@H](C)C(=O)N1C` [Example 6-8, (3S,6R,9S,12R,15S,18R,21S,24R)-3,9,15,21-tetraisobutyl-6,18-bis(4-((2-isopropyl-1H-imidazol-1-yl)methyl)benzyl)-4,10,12,16,22,24-hexamethyl-1,7,13,19-tetraoxa-4,10,16,22-tetraazacyclotetracosan-2,5,8,11,14,17,20,23-octaone], the minimal effective concentration fell in the range of 0.01 to 0.1 µM.

As for `CC(C)C[C@H]1C(=O)O[C@H](Cc2ccc(Cn3ccnc3I)cc2)C(=O)N(C)[C@@H](CC(C)C)C(=O)O[C@H](C)C(=O)N(C)[C@@H](CC(C)C)C(=O)O[C@H](Cc2ccc(Cn3ccnc3I)cc2)C(=O)N(C)[C@@H](CC(C)C)C(=O)O[C@H](C)C(=O)N1C` [Example 6-10, (3S,6R,9S,12R,15S,18R,21S,24R)-6,18-bis(4-((2-iodo-1H-imidazol-1-yl)methyl)benzyl)-3,9,15,21-tetraisobutyl-4,10,12,16,22,24-hexamethyl-1,7,13,19-tetraoxa-4,10,16,22-tetraazacyclotetracosan-2,5,8,11,14,17,20,23-octaone], the minimal effective concentration fell in the range of 0.01 to 0.1 µM.
